Results from ChEMBL document CHEMBL3885861, “Open TG-GATES”.

Organism: Rattus norvegicus
Assay: Open TG-GATES - Regimen: Daily Repeat
Format: toxicity, organism-based, Sprague-Dawley
Set-up: regimen Daily Repeat, gender Male, age 6 weeks
Conditions: in vivo, po, 0 mg/kg, […], route gavage, dose level Control; for KIDNEY_L / KIDNEY_R / KIDNEY_TOTAL: tissue Kidney; for LIVER: tissue Liver; for A/G / ALP / ALT / AST / BUN / CRE / Ca / Cl / DBIL / GLC / IP / K / LDH / Na / PL / RALB / TBIL / TC / TG / TP / gamma-GTP: tissue Plasma

For `ClC(Cl)(Cl)Cl` [CARBON TETRACHLORIDE], the Lym (tissue Blood, time 28 day) was 83.8%, the MCH (tissue Blood, time 28 day) was 19.3 pg and the MCHC (tissue Blood, time 28 day) was 34.6%. For the same compound, the MCV (tissue Blood, time 28 day) was 55.7 fL, the Mono (tissue Blood, time 28 day) was 2.6% and the Neu (tissue Blood, time 28 day) was 11.8%. It also gave a PT (tissue Blood, time 28 day) of 11.9 s, a Plat (tissue Blood, time 28 day) of 120.7 x10_4/uL and an RBC (tissue Blood, time 28 day) of 785.8 x10_4/ul. The Ret (tissue Blood, time 28 day) was 2.8%, the WBC (tissue Blood, time 28 day) was 121 x10_2/uL and the KIDNEY_L (time 7 day) was 1 g. It also gave a KIDNEY_R (time 7 day) of 1 g, a KIDNEY_TOTAL (time 7 day) of 2.1 g and a KIDNEY_L (time 14 day) of 1.2 g. For the same compound, the KIDNEY_R (time 14 day) was 1.1 g, the KIDNEY_TOTAL (time 14 day) was 2.3 g and the KIDNEY_L (time 28 day) was 1.3 g. The KIDNEY_R (time 28 day) was 1.4 g, the KIDNEY_TOTAL (time 28 day) was 2.7 g and the LIVER (time 7 day) was 12.5 g. The LIVER (time 14 day) was 12.6 g, the LIVER (time 28 day) was 16.7 g and the A/G (time 7 day) was 1.7. The ALP (time 7 day) was 922.4 IU/L, the ALT (time 7 day) was 34.2 IU/L and the AST (time 7 day) was 62.4 IU/L. For the same compound, the BUN (time 7 day) was 16.2 mg/dL, the CRE (time 7 day) was 0.4 mg/dL and the Ca (time 7 day) was 10.7 mg/dL. The Cl (time 7 day) was 104 meq/L, the DBIL (time 7 day) was 0.1 mg/dL and the GLC (time 7 day) was 204.2 mg/dL. For the same compound, the IP (time 7 day) was 7.4 mg/dL, the K (time 7 day) was 4.2 meq/L and the LDH (time 7 day) was 201.8 IU/L. For the same compound, the Na (time 7 day) was 139.8 meq/L, the PL (time 7 day) was 165.4 mg/dL and the RALB (time 7 day) was 3.5 g/dL. It also gave a TBIL (time 7 day) of 0.2 mg/dL, a TC (time 7 day) of 81.8 mg/dL and a TG (time 7 day) of 126.4 mg/dL. For the same compound, the TP (time 7 day) was 5.5 g/dL, the gamma-GTP (time 7 day) was 1.2 IU/L and the A/G (time 14 day) was 1.4. It also gave an ALP (time 14 day) of 813 IU/L, an ALT (time 14 day) of 29.8 IU/L and an AST (time 14 day) of 60.2 IU/L. For the same compound, the BUN (time 14 day) was 14 mg/dL, the CRE (time 14 day) was 0.5 mg/dL and the Ca (time 14 day) was 10.4 mg/dL. The Cl (time 14 day) was 103.8 meq/L, the DBIL (time 14 day) was 0.062 mg/dL and the GLC (time 14 day) was 215.8 mg/dL. The IP (time 14 day) was 7.3 mg/dL, the K (time 14 day) was 3.7 meq/L and the LDH (time 14 day) was 209.6 IU/L. It also gave a Na (time 14 day) of 142.4 meq/L, a PL (time 14 day) of 135.6 mg/dL and an RALB (time 14 day) of 3.5 g/dL. The TBIL (time 14 day) was 0.1 mg/dL, the TC (time 14 day) was 69 mg/dL and the TG (time 14 day) was 73.4 mg/dL. It also gave a TP (time 14 day) of 5.9 g/dL, a gamma-GTP (time 14 day) of 1 IU/L and an A/G (time 28 day) of 1.4. For the same compound, the ALP (time 28 day) was 495 IU/L, the ALT (time 28 day) was 31.2 IU/L and the AST (time 28 day) was 60.4 IU/L. It also gave a BUN (time 28 day) of 16.4 mg/dL, a CRE (time 28 day) of 0.5 mg/dL and a Ca (time 28 day) of 10.5 mg/dL. The Cl (time 28 day) was 102.2 meq/L, the DBIL (time 28 day) was 0.07 mg/dL and the GLC (time 28 day) was 238 mg/dL. For the same compound, the IP (time 28 day) was 6.9 mg/dL, the K (time 28 day) was 3.9 meq/L and the LDH (time 28 day) was 211.6 IU/L. It also gave a Na (time 28 day) of 140.4 meq/L, a PL (time 28 day) of 143.8 mg/dL and an RALB (time 28 day) of 3.5 g/dL. It also gave a TBIL (time 28 day) of 0.1 mg/dL, a TC (time 28 day) of 72.4 mg/dL and a TG (time 28 day) of 83 mg/dL. For the same compound, the TP (time 28 day) was 6 g/dL and the gamma-GTP (time 28 day) was 0.8 IU/L.
